Test results as given in patent US10800792B2, “Inhibitors of Bruton's tyrosine kinase and method of their use” (JANSSEN PHARMACEUTICA NV, priority 2015, dated 2020).

Target: unphosphorylated-BTK kinase domain (UP-BTK), GST-tagged human BTK (389-659aa) (Homo sapiens (Human), UniProt Q06187)
Experiment: BTK kinase Lanthascreen binding assay
Settings: Lanthascreen tracer competition, 60 minutes incubation, pIC50 = negative log of the IC50 in molar; for IC50: read-out: BTK_I_binding pIC50 (converted)
Outline: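 Tracer-displacement binding assay against the non-phosphorylated enzyme, read by Lanthascreen. Reported: pIC50.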

Chain of unphosphorylated-BTK kinase domain (UP-BTK), GST-tagged human BTK (389-659aa) (Q06187 389-659): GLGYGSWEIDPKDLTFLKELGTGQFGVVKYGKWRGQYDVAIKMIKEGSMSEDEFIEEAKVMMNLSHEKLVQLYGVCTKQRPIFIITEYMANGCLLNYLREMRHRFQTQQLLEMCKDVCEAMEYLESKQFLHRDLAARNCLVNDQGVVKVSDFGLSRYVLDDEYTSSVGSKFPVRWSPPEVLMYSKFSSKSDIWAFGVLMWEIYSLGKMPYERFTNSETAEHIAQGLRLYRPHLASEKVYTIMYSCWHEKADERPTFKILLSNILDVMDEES

| Compound | BTK_I_binding pIC50 | IC50 |
| --- | --- | --- |
| CCC(=O)N1CCCC(C(=O)Nc2sc3nccc4c3c2NC(=O)N4c2ccc(Oc3ccccc3)cc2C)C1 (stereo not shown) [Example 818, N-(5-(2-Methyl-4-phenoxyphenyl)-4-oxo-4,5-dihydro-3H-1-thia-3,5,8-triazaacenaphthylen-2-yl)-1-propionylpiperidine-3-carboxamide] | 5.9 |  |
| Cc1cc(Oc2ccccc2)ccc1N1C(=O)Nc2c(NC(=O)C3CCN(C(=O)CC#N)CC3)sc3nccc1c23 [Example 819, 1-(2-Cyanoacetyl)-N-(5-(2-methyl-4-phenoxyphenyl)-4-oxo-4,5-dihydro-3H-1-thia-3,5,8-triazaacenaphthylen-2-yl)piperidine-4-carboxamide] | 5.9 |  |
| C=CC(=O)N1CCC(C(=O)Nc2sc3nccc4c3c2NC(=O)N4c2ccc(Oc3ccccc3)cc2C)CC1 [Example 820, 1-Acryloyl-N-(5-(2-methyl-4-phenoxyphenyl)-4-oxo-4,5-dihydro-3H-1-thia-3,5,8-triazaacenaphthylen-2-yl)piperidine-4-carboxamide] | 5.9 |  |
| CCN1CCCC(C(=O)Nc2sc3nccc4c3c2NC(=O)N4c2ccc(Oc3ccccc3)cc2C)C1 (stereo not shown) [Example 821, 1-Ethyl-N-(5-(2-methyl-4-phenoxyphenyl)-4-oxo-4,5-dihydro-3H-1-thia-3,5,8-triazaacenaphthylen-2-yl)piperidine-3-carboxamide] | 5.8 |  |
| Cc1cc(Oc2ccccc2)ccc1N1C(=O)Nc2c(NC(=O)C3CCN(C#N)CC3)sc3nccc1c23 [Example 822, 1-Cyano-N-(5-(2-methyl-4-phenoxyphenyl)-4-oxo-4,5-dihydro-3H-1-thia-3,5,8-triazaacenaphthylen-2-yl)piperidine-4-carboxamide] | 5.8 |  |
| Cc1cc(Oc2ccccc2)ccc1N1C(=O)Nc2c(NC(=O)C3CCCN(C)C3)sc3nccc1c23 (stereo not shown) [Example 823, 1-Methyl-N-(5-(2-methyl-4-phenoxyphenyl)-4-oxo-4,5-dihydro-3H-1-thia-3,5,8-triazaacenaphthylen-2-yl)piperidine-3-carboxamide] |  | 3.16 µM |
| Cc1cc(C(=O)Nc2cc(C(F)(F)F)ccn2)ccc1N1C(=O)Nc2c(C(=O)N[C@@H]3CCCN(C(=O)/C(C#N)=C/C4CC4)C3)sc3nccc1c23 [Example 835, (R,E)-N-(1-(2-Cyano-3-cyclopropylacryloyl)piperidin-3-yl)-5-(2-methyl-4-((4-(trifluoromethyl)pyridin-2-yl)carbamoyl)phenyl)-4-oxo-4,5-dihydro-3H-1-thia-3,5,8-triazaacenaphthylene-2-carboxamide] | 8.0 |  |
| N#C/C(=C\C1CC1)C(=O)N1CCC[C@@H](NC(=O)c2sc3nccc4c3c2NC(=O)N4c2ccc(C(=O)Nc3cc(C(F)(F)F)ccn3)cc2F)C1 [Example 836, (R,E)-N-(1-(2-Cyano-3-cyclopropylacryloyl)piperidin-3-yl)-5-(2-fluoro-4-((4-(trifluoromethyl)pyridin-2-yl)carbamoyl)phenyl)-4-oxo-4,5-dihydro-3H-1-thia-3,5,8-triazaacenaphthylene-2-carboxamide] | 7.9 |  |
| Cc1cc(Oc2ccccc2)ccc1N1C(=O)Nc2c(C(=O)N[C@@H]3CCN(C#N)C3)sc3nccc1c23 [Example 837, (R)—N-(1-Cyanopyrrolidin-3-yl)-5-(2-methyl-4-phenoxyphenyl)-4-oxo-4,5-dihydro-3H-1-thia-3,5,8-triazaacenaphthylene-2-carboxamide] | 7.9 |  |
| Cc1cc(Oc2ccccc2)ccc1N1C(=O)Nc2c(C(=O)N[C@@H]3CCN(C(=O)CC#N)C3)sc3nccc1c23 [Example 838, (R)—N-(1-(2-Cyanoacetyl)pyrrolidin-3-yl)-5-(2-methyl-4-phenoxyphenyl)-4-oxo-4,5-dihydro-3H-1-thia-3,5,8-triazaacenaphthylene-2-carboxamide] | 7.9 |  |
| N#C/C(=C\C1CC1)C(=O)N1CCC[C@@H](NC(=O)c2sc3nccc4c3c2NC(=O)N4c2cccc(Oc3ccccc3)c2)C1 [Example 840, (R,E)-N-(1-(2-Cyano-3-cyclopropylacryloyl)piperidin-3-yl)-4-oxo-5-(3-phenoxyphenyl)-4,5-dihydro-3H-1-thia-3,5,8-triazaacenaphthylene-2-carboxamide] | 7.8 |  |
| Cc1cc(Oc2ccccc2)ccc1N1C(=O)Nc2c(C(=O)N[C@@H]3CCN(C(=O)/C(C#N)=C/C4CC4)C3)sc3nccc1c23 [Example 844, (R,E)-N-(1-(2-Cyano-3-cyclopropylacryloyl)pyrrolidin-3-yl)-5-(2-methyl-4-phenoxyphenyl)-4-oxo-4,5-dihydro-3H-1-thia-3,5,8-triazaacenaphthylene-2-carboxamide] | 7.6 |  |

Continued, values first:

| BTK_I_binding pIC50 | IC50 | Compound |
| --- | --- | --- |
|  | 0.0126 µM | C=CC(=O)N1CCC[C@@H](NC(=O)c2sc3nccc4c3c2NC(=O)N4c2ccc(Oc3ccccc3)cc2C)C1 [Example 839, (R)—N-(1-Acryloylpiperidin-3-yl)-5-(2-methyl-4-phenoxyphenyl)-4-oxo-4,5-dihydro-3H-1-thia-3,5,8-triazaacenaphthylene-2-carboxamide] |
| 7.7 |  | COCCC(=O)N1CCC[C@@H](NC(=O)c2sc3nccc4c3c2NC(=O)N4c2ccc(Oc3ccccc3)cc2C)C1 [Example 841, (R)—N-(1-(3-Methoxypropanoyl)piperidin-3-yl)-5-(2-methyl-4-phenoxyphenyl)-4-oxo-4,5-dihydro-3H-1-thia-3,5,8-triazaacenaphthylene-2-carboxamide] |
| 7.7 |  | C=CC(=O)N1CCC[C@@H](NC(=O)c2sc3nccc4c3c2NC(=O)N4c2cc(-c3cccc(F)c3F)ccc2C)C1 [Example 842, (R)—N-(1-Acryloylpiperidin-3-yl)-5-(2′,3′-difluoro-4-methyl-[1,1′-biphenyl]-3-yl)-4-oxo-4,5-dihydro-3H-1-thia-3,5,8-triazaacenaphthylene-2-carboxamide] |
| 7.6 |  | CCC(=O)N1CC[C@@H](NC(=O)c2sc3nccc4c3c2NC(=O)N4c2ccc(Oc3ccccc3)cc2C)C1 [Example 843, (R)-5-(2-Methyl-4-phenoxyphenyl)-4-oxo-N-(1-propionylpyrrolidin-3-yl)-4,5-dihydro-3H-1-thia-3,5,8-triazaacenaphthylene-2-carboxamide] |
| 7.6 |  | C=CC(=O)N1CCC[C@@H](NC(=O)c2sc3nccc4c3c2NC(=O)N4c2ccc(Oc3ccccn3)cc2)C1 [Example 846, (R)—N-(1-Acryloylpiperidin-3-yl)-4-oxo-5-(4-(pyridin-2-yloxy)phenyl)-4,5-dihydro-3H-1-thia-3,5,8-triazaacenaphthylene-2-carboxamide] |
| 7.6 |  | C=CC(=O)N1CC[C@@H](NC(=O)c2sc3nccc4c3c2NC(=O)N4c2ccc(Oc3cccc(COc4ccccc4C#N)c3)cc2C)C1 [Example 847, (R)—N-(1-Acryloylpyrrolidin-3-yl)-5-(4-(3-((2-cyanophenoxy)methyl)phenoxy)-2-methylphenyl)-4-oxo-4,5-dihydro-3H-1-thia-3,5,8-triazaacenaphthylene-2-carboxamide] |
| 7.6 |  | CN[C@H](C)C(=O)N1CCC[C@@H](NC(=O)c2sc3nccc4c3c2NC(=O)N4c2ccc(Oc3ccccc3)cc2C)C1 [Example 848, 5-(2-Methyl-4-phenoxyphenyl)-N—((R)-1-((R)-2-(methylamino)propanol)piperidin-3-yl)-4-oxo-4,5-dihydro-3H-1-thia-3,5,8-triazaacenaphthylene-2-carboxamide] |
